Measured values as given in patent publication US10336701B2, “Pyridin-2-one derivatives of formula (II) useful as EP3 receptor antagonists” (Janssen Pharmaceutica NV, priority 2017, dated 2019).

Legend:
[1] = target: T1, EP3 receptor (Homo sapiens, UniProt P43115); assay: [3H]-PGE2 binding assay (EP3 competition binding); conditions: read-out: [3H]-PGE2 Binding Ki
T1 construct: purchased Millipore HTS092M
T1 sequence (P43115 1-390): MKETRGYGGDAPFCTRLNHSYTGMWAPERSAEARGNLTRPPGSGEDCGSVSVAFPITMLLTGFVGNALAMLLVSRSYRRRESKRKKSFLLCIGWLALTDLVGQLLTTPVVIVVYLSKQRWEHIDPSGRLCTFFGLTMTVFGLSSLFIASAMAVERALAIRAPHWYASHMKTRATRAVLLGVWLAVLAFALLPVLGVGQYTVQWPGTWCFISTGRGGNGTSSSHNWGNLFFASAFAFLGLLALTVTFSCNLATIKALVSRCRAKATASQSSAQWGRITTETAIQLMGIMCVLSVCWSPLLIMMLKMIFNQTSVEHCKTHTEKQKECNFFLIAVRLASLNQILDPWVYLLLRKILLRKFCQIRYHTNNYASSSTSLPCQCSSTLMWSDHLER
Procedure, shortened: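 Scintillation-bead competition binding with EP3 membranes (2 μg/well), 2 nM [3H]-PGE2, 0.1% DMSO, in 50 mM Tris, 10 mM MgCl2, 1 mM EDTA, pH 7.4.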

[2] = target: T1, EP3 receptor; assay: CHO cell cAMP assay (forskolin and sulprostone stimulated, HTRF); format: cell-based; conditions: CHO cells; sulprostone 700 nM (EC80) and FSK 2 μM (EC70), 37° C. for 30 minutes; read-out: CHO_cAMP IC50
Protocol: For detection, a homogeneous competitive immunoassay (Time Resolved Fluorescence Energy Transfer (hTR-FRET)) was used.
Cells (6K cells per well) were plated in Poly-D-Lysine coated plates the day before the assay was to be run and were incubated at 37° C. […] At the start of the assay the buffer was removed from the cells and replaced with buffer containing test compound(s). Sulprostone at an EC80 dose (700 nM) and FSK at an EC70 dose (2 μM) were added to initiate the reaction (37° C. for 30 minutes).
FSK increases cAMP production and sulprostone decreases cAMP production produced by FSK. In this assay, EP3 antagonists will increase the cAMP to the level of cAMP generated by FSK alone.
Approximately one hour later the plates were read on an Envision (Perkin Elmer) in HTRF mode.
NSP, NSN, NSsample were converted to nM cAMP using the following equation: […]
IC50 values were determined from a […] (Hill equation) of a single 11-point compound dosing.

| SMILES | Ki [1] | IC50 [2] |
| --- | --- | --- |
| CC(C)C(CC1OC(=O)NC1=O)c1ccc(-c2cc(Cl)c3c(c2)ncn3C)[nH]c1=O (centres unmarked) [compound 107, 5-(2-(6-(7-chloro-1-methyl-1H-benzo[d]imidazol-5-yl)-2-oxo-1,2-dihydropyridin-3-yl)-3-methylbutyl)oxazolidine-2,4-dione] | > 10 µM | > 20 µM |
| CC1(c2ccc(-c3ccc4ccccc4c3)[nH]c2=O)N=CNC1=O (centres unmarked) [compound 222, 3-(4-methyl-5-oxo-4,5-dihydro-1H-imidazol-4-yl)-6-(naphthalen-2-yl)-1,2-dihydropyridin-2-one] | 0.327 µM | 4.27 µM |
| CC1(c2ccc(-c3ccc4ccccc4c3)[nH]c2=O)CN/C(=N\O)N1 (centres unmarked) [compound 288, 3-[(2E)-2-(hydroxyimino)-4-methylimidazolidin-4-yl]-6-(naphthalen-2-yl)-1,2-dihydropyridin-2-one] | 0.18 µM | 0.656 µM |
| CC1(c2ccc(-c3ccc4ccccc4c3)[nH]c2=O)C(=O)Nc2nncn21 (centres unmarked) [compound 152, 3-[5-methyl-6-oxo-5H, 6H, 7H-imidazo[2,1-c][1,2,4]triazol-5-yl]-6-(naphthalen-2-yl)-1,2-dihydropyridin-2-one] | 0.428 µM | 2.14 µM |
| CCN1CCOc2ccc(-c3ccc(C(C(C)C)N4CCSCC4)c(=O)[nH]3)cc21 (centres unmarked) [Compound #164, 6-(4-ethyl-3,4-dihydro-2H-benzo[b][1,4]oxazin-6-yl)-3-(2-methyl-1-thiomorpholinopropyl)pyridin-2(1H)-one] | 0.026 µM | 0.485 µM |
| CCn1ncc2c(F)cc(-c3ccc(C(CN4CCS(=O)(=O)CC4)C(C)C)c(=O)[nH]3)cc21 (centres unmarked) [Compound #133, 4-{2-[6-(1-ethyl-4-fluoroindazol-6-yl)-2-oxo-1H-pyridin-3-yl]-3-methylbutyl},4-thiomorpholine-1,1-dione] | 0.012 µM | 0.235 µM |
| CCn1ncc2c(F)cc(-c3ccc(C(CC4OC(=O)NC4=O)C(C)C)c(=O)[nH]3)cc21 (centres unmarked) [compound 87, 5-(2-(6-(1-ethyl-4-fluoro-1H-indazol-6-yl)-2-oxo-1,2-dihydropyridin-3-yl)-3-methylbutyl)oxazoli-dine-2,4-dione] | 0.032 µM | 0.149 µM |
| N#CC1(OC(N)=O)CCCC(c2ccc(-c3ccc4ccccc4c3)[nH]c2=O)C1 (centres unmarked) [compound 185, 1-cyano-3-(6-(naphthalen-2-yl)-2-oxo-1,2-dihydropyridin-3-yl)cyclohexyl carbamate] | 0.031 µM | 0.314 µM |
| CCn1ncc2c(F)cc(-c3ccc(C(CC)(CC)CC4OC(=O)NC4=O)c(=O)[nH]3)cc21 (centres unmarked) [compound 56, 5-(2-ethyl-2-(6-(1-ethyl-4-fluoro-1H-indazol-6-yl)-2-oxo-1,2-dihydropyridin-3-yl)butyl)oxazolidine-2,4-dione] | 0.02 µM | 0.23 µM |
| CC1(c2ccc(-c3ccc4ccccc4c3)[nH]c2=O)CN/C(=N\C#N)N1 (centres unmarked) [compound 283] | 0.049 µM | 0.18 µM |
| CC1(c2ccc(-c3ccc4ccccc4c3)[nH]c2=O)C(=O)Nc2nccn21 (centres unmarked) [compound 153, 3-methyl-3-(6-(naphthalen-2-yl)-2-oxo-1,2-dihydropyridin-3-yl)-1H-imidazo[1,2-a]imidazol-2(3H)-one] | 0.043 µM | 0.4 µM |
| CC(C)C(C(=O)NC1CCSCC1)c1ccc(-c2ccc3cccc(F)c3c2)[nH]c1=O (centres unmarked) [compound 183, 2-(6-(8-fluoronaphthalen-2-yl)-2-oxo-1,2-dihydropyridin-3-yl)-3-methyl-N-(tetrahydro-2H-thiopyran-4-yl)butanamide] | 0.003 µM | 0.001 µM |
| CCn1cnc2ccc(-c3ccc(C(C=C4OC(=O)NC4=O)C(C)C)c(=O)[nH]3)c(F)c21 (centres unmarked) [compound 91, 5-(2-(6-(3-ethyl-4-fluoro-3H-benzo[d]imidazol-5-yl)-2-oxo-1,2-dihydropyridin-3-yl)-3-methylbutylidene)oxazolidine-2,4-dione] | > 10 µM | > 20 µM |
| CC(C)C1(c2ccc(-c3ccc4cccc(F)c4c3)[nH]c2=O)NC(=S)NC1=O (centres unmarked) [compound 294, 6-(8-fluoronaphthalen-2-yl)-3-(4-isopropyl-5-oxo-2-thioxoimidazolidin-4-yl)pyridin-2(1H)-one] | 0.006 µM | 0.056 µM |
| CC(C)C(c1ccc(-c2ccc3cccc(F)c3c2)[nH]c1=O)n1cnc(N)n1 (centres unmarked) [compound 161, 3-(1-(3-amino-1H-1,2,4-triazol-1-yl)-2-methylpropyl)-6-(8-fluoronaphthalen-2-yl)pyridin-2(1H)-one] | 0.027 µM | 0.095 µM |
| CCn1ncc2c(F)cc(-c3ccc(C(/C=C4\CCNC4=O)(CC)CC)c(=O)[nH]3)cc21 [compound 13, (E)-6-(1-ethyl-4-fluoro-1H-indazol-6-yl)-3-(3-((2-oxopyrrolidin-3-ylidene)methyl)pentan-3-yl)pyridin-2(1H)-one] | 0.003 µM | 0.022 µM |
| CC(C)C(Cc1ccc(-c2ccc3cccc(F)c3c2)[nH]c1=O)C1OC(=O)NC1=O (centres unmarked) [Compound #308, 5-(1-(6-(8-fluoronaphthalen-2-yl)-2-oxo-1,2-dihydropyridin-3-yl)-3-methylbutan-2-yl)oxazolidine-2,4-dione] | 0.046 µM | 0.21 µM |
| CC(C)C(/C=C1\OC(=O)NC1=O)c1ccc(-c2cc(F)c3cnn(C(C)C)c3c2)[nH]c1=O (centres unmarked) [compound 122, (Z)-5-(2-(6-(4-fluoro-1-isopropyl-1H-indazol-6-yl)-2-oxo-1,2-dihydropyridin-3-yl)-3-methylbutylidene)oxazolidine-2,4-dione] | 0.032 µM | 0.278 µM |
| CC(C)C(NC(N)=O)c1ccc(-c2ccc3cccc(F)c3c2)[nH]c1=O (centres unmarked) [compound 267, 1-(1-(6-(8-fluoronaphthalen-2-yl)-2-oxo-1,2-dihydropyridin-3-yl)-2-methylpropyl)urea] | 0.006 µM | 0.014 µM |
| CCOC(=O)C(=C1CCCCC1)c1ccc(-c2ccc3ccccc3c2)[nH]c1=O [compound 281, ethyl 2-cyclohexylidene-2-(6-(naphthalen-2-yl)-2-oxo-1,2-dihydropyridin-3-yl)acetate] | 0.037 µM | 0.527 µM |
| CCn1cc2c(C)cc(-c3ccc(C(/C=C4\OC(=O)NC4=O)C(C)C)c(=O)[nH]3)cc2n1 (centres unmarked) [compound 98, (Z)-5-(2-(6-(2-ethyl-4-methyl-2H-indazol-6-yl)-2-oxo-1,2-dihydropyridin-3-yl)-3-methylbutylidene)oxazolidine-2,4-dione] | > 10 µM | > 20 µM |
| CC(C)C(c1ccc(-c2ccc3cccc(F)c3c2)[nH]c1=O)n1ccnc1N (centres unmarked) [Compound #162, 3-(1-(2-amino-1H-imidazol-1-yl)-2-methylpropyl)-6-(8-fluoronaphthalen-2-yl)pyridin-2(1H)-one] | 0.013 µM | 0.117 µM |
| NC(=O)C1(c2ccc(-c3ccc4ccccc4c3)[nH]c2=O)CC=NN1 (centres unmarked) [compound 247, 5-(6-(naphthalen-2-yl)-2-oxo-1,2-dihydropyridin-3-yl)-4,5-dihydro-1H-pyrazole-5-carboxamide] | 0.771 µM | 2.4 µM |
| CCn1ncc2c(C)cc(-c3ccc(C(CC4OC(=O)NC4=O)C(C)C)c(=O)[nH]3)cc21 (centres unmarked) [compound 126, 5-(2-(6-(1-ethyl-4-methyl-1H-indazol-6-yl)-2-oxo-1,2-dihydropyridin-3-yl)-3-methylbutyl)oxazolidine-2,4-dione] | 0.065 µM | 0.382 µM |
| CCn1ncc2c(F)cc(-c3ccc(C(CC)(CC)c4noc(=O)[nH]4)c(=O)[nH]3)cc21 [Compound #4] | 0.088 µM | 1.8 µM |
